The values below come from patent US6426229B1, “Chelating agent and detergent comprising the same” (Mitsubishi Rayon Co., Ltd., priority 1995, dated 2002).

The first data set in a line: Compression strength (hardening property) of powder stored under load for 2 months. Type of data set: physicochemical. The note with it: Load 100 (table head [Kg]; text 100 g/cm^2); 20-30° C., relative humidity 40-70%. As to the method: Method for the Measurement of Compression Strength
(1) A test sample (500 g) is put in a poly-ethylene bag of 20 cm×20 cm in a room at a temperature of 20-30° C. and a relative humidity of 40-70%. The powder is levelled to an area of 20 cm×20 cm and air is forced out of the bag, and, then, the bag is sealed. This bag is further put in a kraft bag and this kraft bag is sealed.
(2) The kraft bag of (1) is placed horizontally on a flat plate and a plate is put thereon. […]
(3) With keeping the temperature of 20-30° C. and the relative humidity of 40-70%, the test sample is taken out after lapse of 2 months from the starting of application of load. Several test pieces (4 cm long×4 cm broad×2 cm high) are cut out from the sample.
`O=C([O-])CCN[C@@H](CC(=O)[O-])C(=O)[O-].[Na+].[Na+].[Na+]` [Example 6, trisodium salt of (S)-aspartic acid-N-monopropionic acid]: the “Compression strength after stored for 2 months” value (“Compression strength” for short) came to 1.2 Kg/cm^2. On the same count and under the same terms, in the case of `CN(CC(=O)[O-])CC(=O)[O-].[Na+].[Na+]` [compound 10, disodium N-methyliminodiacetate, reference compound] it was 2.6 Kg/cm^2. Take `O=C(O)C[C@H](NCCN[C@@H](CC(=O)O)C(=O)O)C(=O)O` [compound 21, ethylenediaminedisuccinic acid, reference compound]: the “Compression strength” value worked out at 2.8 Kg/cm^2.

With `O=C([O-])CN(CCS(=O)(=O)[O-])CC(=O)[O-].[Na+].[Na+].[Na+]` [Example 28, trisodium salt of taurine-N,N-diacetic acid], the “Compression strength” value is given as 1.3 Kg/cm^2. `O=C([O-])C[C@H](NCCN[C@@H](CC(=O)[O-])C(=O)[O-])C(=O)[O-].[Na+].[Na+].[Ni+2]` [compound 28, nickel disodium (S,S)-ethylenediaminedisuccinate, reference compound]: the “Compression strength” value is on record as 2.5 Kg/cm^2.

Take `CN(CC(=O)[O-])CC(=O)[O-].[Na+].[Na+]` [Example 29, disodium N-methyliminodiacetate]: the “Compression strength” value came out at 1.2 Kg/cm^2. On the same count and under the same terms, in the case of `O=C([O-])CN[C@@H](CC(=O)[O-])C(=O)[O-].[Na+].[Na+].[Na+]` [compound 1, trisodium salt of (S)-aspartic acid-N-monoacetic acid, reference compound] it was 2.6 Kg/cm^2; in that of `O=C([O-])CC(NCCNC(CC(=O)[O-])C(=O)[O-])C(=O)[O-].[Na+].[Na+].[Na+].[Na+]` (stereo not shown) [Example 51, tetrasodium ethylenediaminedisuccinate], 1.2 Kg/cm^2. The same measure, in the same setting: in the case of `O=C([O-])CN(CC(=O)[O-])c1ccccc1C(=O)[O-].[Fe+3]` [Example 44, iron salt of anthranilic acid-N,N-diacetic acid] it was 1.0 Kg/cm^2; in that of `O=C([O-])C[C@H](NCC(O)CN[C@@H](CC(=O)[O-])C(=O)[O-])C(=O)[O-].[Na+].[Na+].[Na+].[Na+]` [Example 55, tetrasodium (S,S)-2-hydroxy-1,3-propanediaminedisuccinate], 1.2 Kg/cm^2. For the compound `O=C(O)CCN[C@@H](CC(=O)O)C(=O)O` [Example 18, (S)-aspartic acid-N-monopropionic acid], the “Compression strength” value came to 1.2 Kg/cm^2. For the compound `O=C(O)CC(NCCCNC(CC(=O)O)C(=O)O)C(=O)O` (stereo not shown) [compound 23, 1,3-propanediaminedisuccinic acid, reference compound], the “Compression strength” value turned out to be 2.7 Kg/cm^2. On the same count and under the same terms, in the case of `O=C([O-])C[C@H](NCCCN[C@@H](CC(=O)[O-])C(=O)[O-])C(=O)[O-].[Na+].[Na+].[Na+].[Na+]` [Example 54, tetrasodium (S,S)-1,3-propanediaminedisuccinate] it was 0.9 Kg/cm^2. Same read-out and setting: in the case of `O=C(O)C[C@H](NCCN[C@@H](CC(=O)O)C(=O)O)C(=O)O` [Example 66, ethylenediaminedisuccinic acid] it was 0.8 Kg/cm^2. Still for that read-out and setting: in the case of `CN(CC(=O)O)CC(=O)O` [Example 38, N-methyliminodiacetic acid] it was 1.1 Kg/cm^2; in that of `O=C([O-])C[C@H](NCCN[C@@H](CC(=O)[O-])C(=O)[O-])C(=O)[O-].[Na+].[Na+].[Na+].[Na+]` [Example 52, tetrasodium (S,S)-ethylenediaminedisuccinate], 1.0 Kg/cm^2; in that of `O=C([O-])CN(CCS(=O)(=O)[O-])CC(=O)[O-].[Na+].[Na+].[Na+]` [compound 9, trisodium salt of taurine-N,N-diacetic acid, reference compound], 2.5 Kg/cm^2. For the compound `O=C(O)C[C@@H](C(=O)O)N(CC(=O)O)CC(=O)O` [compound 7, (S)-aspartic acid-N,N-diacetic acid, reference compound], the “Compression strength” value turned out to be 2.3 Kg/cm^2.

Turning to `O=C(O)C[C@H](NCCCN[C@@H](CC(=O)O)C(=O)O)C(=O)O` [Example 69, (S,S)-1,3-propanediaminedisuccinic acid], the “Compression strength” value came out at 1.0 Kg/cm^2. Same read-out and setting: in the case of `O=C([O-])C[C@@H](C(=O)[O-])N(CC(=O)[O-])CC(=O)[O-].[Na+].[Na+].[Na+].[Na+]` [Example 7, tetrasodium salt of (S)-aspartic acid-N,N-diacetic acid] it was 1.3 Kg/cm^2; in that of `CN(CC(=O)O)CC(=O)O` [compound 13, N-methyliminodiacetic acid, reference compound], 2.7 Kg/cm^2. Turning to `O=C([O-])C[C@H](NCC(O)CN[C@@H](CC(=O)[O-])C(=O)[O-])C(=O)[O-].[Na+].[Na+].[Na+].[Na+]` [compound 20, tetrasodium (S,S)-2-hydroxy-1,3-propanediaminedisuccinate, reference compound], the “Compression strength” value is on record as 2.7 Kg/cm^2.

Still in this data set, the particulars now being: Load 200 (table head [Kg]; text 200 g/cm^2); 20-30° C., relative humidity 40-70%.
As for `O=C([O-])CC(NCCCNC(CC(=O)[O-])C(=O)[O-])C(=O)[O-].[Na+].[Na+].[Ni+2]` [Example 84, nickel disodium (S,S)-1,3-propanediaminedisuccinate], the “Compression strength” value is 1.0 Kg/cm^2. Still for that read-out and setting: for `O=C([O-])CN(CCS(=O)(=O)[O-])CC(=O)[O-].[Na+].[Na+].[Na+]` [Example 25, trisodium salt of taurine-N,N-diacetic acid] the value was 1.1 Kg/cm^2; for `O=C([O-])C[C@H](NCC(O)CN[C@@H](CC(=O)[O-])C(=O)[O-])C(=O)[O-].[Na+].[Na+].[Na+].[Na+]` [Example 50, tetrasodium (S,S)-2-hydroxy-1,3-propanediaminedisuccinate], 1.2 Kg/cm^2; for `O=C([O-])C[C@H](NCCN[C@@H](CC(=O)[O-])C(=O)[O-])C(=O)[O-].[Cu+2].[Na+].[Na+]` [Example 80, copper disodium (S,S)-ethylenediaminedisuccinate], 1.0 Kg/cm^2. On the same count and under the same terms, in the case of `O=C([O-])CC(NCCNC(CC(=O)[O-])C(=O)[O-])C(=O)[O-].[Fe+3].[NH4+]` (stereo not shown) [Example 76, iron ammonium ethylenediaminedisuccinate] it was 1.1 Kg/cm^2; in that of `O=C(O)C[C@@H](C(=O)O)N(CC(=O)O)CC(=O)O` [Example 15, (S)-aspartic acid-N,N-diacetic acid], 0.9 Kg/cm^2. Still for that read-out and setting: for `C[C@@H](C(=O)[O-])N(CC(=O)[O-])CC(=O)[O-].[Na+].[Na+].[Na+]` [Example 4, trisodium salt of (S)-α-alanine-N,N-diacetic acid] the value was 1.1 Kg/cm^2; for `O=C([O-])C[C@H](NCCCN[C@@H](CC(=O)[O-])C(=O)[O-])C(=O)[O-].[Cu+2].[Na+].[Na+]` [Example 83, copper disodium (S,S)-1,3-propanediaminedisuccinate], 1.3 Kg/cm^2. For `O=C([O-])C[C@H](NCCN[C@@H](CC(=O)[O-])C(=O)[O-])C(=O)[O-].[Na+].[Na+].[Ni+2]` [Example 81, nickel disodium (S,S)-ethylenediaminedisuccinate], the “Compression strength” value is 1.2 Kg/cm^2. The same measure, in the same setting: in the case of `O=C(O)C[C@H](NCCN[C@@H](CC(=O)O)C(=O)O)C(=O)O` [Example 61, ethylenediaminedisuccinic acid] it was 0.9 Kg/cm^2; in that of `O=C(O)CN(CCS(=O)(=O)O)CC(=O)O` [Example 34, taurine-N,N-diacetic acid], 1.2 Kg/cm^2. Regarding `O=C([O-])CC(NCCNC(CC(=O)[O-])C(=O)[O-])C(=O)[O-].[Na+].[Na+].[Na+].[Na+]` (stereo not shown) [Example 46, tetrasodium ethylenediaminedisuccinate], the “Compression strength” value stood at 1.1 Kg/cm^2.

The data set is the same for the next values; noted with them: Load 300 (table head [Kg]; text 300 g/cm^2); 20-30° C., relative humidity 40-70%.
Regarding `CN(CC(=O)O)CC(=O)O` [Example 41, N-methyliminodiacetic acid], the “Compression strength” value is given as 1.0 Kg/cm^2.

On to `O=C(O)CN(CCS(=O)(=O)O)CC(=O)O` [Example 40, taurine-N,N-diacetic acid], for which the “Compression strength” value worked out at 0.9 Kg/cm^2. As to `O=C(O)CN(CC(=O)O)c1ccccc1C(=O)O` [Example 42, anthranilic acid-N,N-diacetic acid], the “Compression strength” value is listed as 1.1 Kg/cm^2. Still for that read-out and setting: for `O=C([O-])C[C@H](NCCN[C@@H](CC(=O)[O-])C(=O)[O-])C(=O)[O-].[Na+].[Na+].[Na+].[Na+]` [Example 57, tetrasodium (S,S)-ethylenediaminedisuccinate] the value was 0.9 Kg/cm^2; for `O=C(O)C[C@H](NCCN[C@@H](CC(=O)O)C(=O)O)C(=O)O` [Example 71, ethylenediaminedisuccinic acid], 1.2 Kg/cm^2; for `C[C@@H](C(=O)O)N(CC(=O)O)CC(=O)O` [Example 24, (S)-α-alanine-N,N-diacetic acid], 0.9 Kg/cm^2.
